Results: ChEMBL document CHEMBL1141708, “Structure-activity relationship of ortho- and meta-phenol based LFA-1 ICAM inhibitors” (Bioorg Med Chem Lett, 2008)

Key:
in vivo [1] = conditions: rat
in vivo [2] = conditions: rat, po

half-life (in vivo [1])	bioavailability (in vivo [2])	Structure (SMILES)
3.6 h	9%	O=C(/C=C/c1ccc(Sc2ccccc2OC[C@H]2CC[C@@H](C(=O)O)CC2)c(C(F)(F)F)c1C(F)(F)F)N1CCOCC1
2.6 h	31%	O=C(/C=C/c1ccc(Sc2cccc(O[C@H]3CC[C@@H](C(=O)O)CC3)c2)c(C(F)(F)F)c1C(F)(F)F)N1CCOCC1
